Results published in patent US20250002507A1, “7,8-DIHYDRO-5H-1,6-NAPHTHYRIDINE DERIVATIVES AS POSITIVE ALLOSTERIC MODULATORS OF THE MUSCARINIC ACETYLCHOLINE RECEPTOR M4 FOR TREATING NEUROLOGICAL AND PSYCHIATRIC DISORDERS” (Vanderbilt University, priority 2021, published 2025).

Target: T1, Human M4 (Homo sapiens, UniProt P08173)
T1 construct: expressed in transfected cells
T1 sequence (P08173 1-479): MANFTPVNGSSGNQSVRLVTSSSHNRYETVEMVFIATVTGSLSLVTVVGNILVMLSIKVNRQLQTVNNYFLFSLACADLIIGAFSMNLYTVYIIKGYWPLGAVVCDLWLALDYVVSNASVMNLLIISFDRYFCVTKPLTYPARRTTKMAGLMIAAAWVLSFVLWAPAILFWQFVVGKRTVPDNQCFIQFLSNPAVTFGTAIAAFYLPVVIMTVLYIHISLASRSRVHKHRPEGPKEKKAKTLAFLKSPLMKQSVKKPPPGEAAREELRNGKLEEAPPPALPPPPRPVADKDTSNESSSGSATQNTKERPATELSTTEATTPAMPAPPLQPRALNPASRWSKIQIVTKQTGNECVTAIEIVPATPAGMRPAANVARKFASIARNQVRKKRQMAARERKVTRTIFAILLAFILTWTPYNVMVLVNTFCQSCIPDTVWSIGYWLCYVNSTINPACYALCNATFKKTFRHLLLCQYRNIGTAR
Assay: mAChR M4 cell-based functional assay (calcium flux, potentiation of EC20 acetylcholine response), hM4-Gqi5 CHO-K1 cells
Conditions: for Emax / Emax at 30 µM: CHO-K1; for EC50: hM4-Gqi5 CHO-K1 cells, calcium flux, PAM of EC20 acetylcholine, read-out: Human M4 EC50; for Emax at 30 µM: % ACh maximum at 30 μM, human M4, read-out: Emax
Protocol: Human and rat M4 cDNAs, along with the chimeric G protein Gqi5, were transfected into Chinese hamster ovary (CHO-K1) cells purchased from the American Type Culture Collection using Lipofectamine2000. hM4-Gqi5 cells were grown in Ham's F-12 medium containing 10% heat-inactivated fetal bovine serum (FBS), 20 mM HEPES, 50 μg/mL G418 sulfate, and 500 μg/mL Hygromycin B. rM4-Gqi5 cells were grown in DMEM containing 10% heat-inactivated FBS, 20 mM HEPES, 400 μg/mL G418 sulfate, and 500 μg/mL Hygromycin B.
For high throughput measurement of agonist-evoked increases in intracellular calcium, CHO-K1 cells stably expressing muscarinic receptors were plated in growth medium lacking G418 and hygromycin at 15,000 cells/20 μL/well in Greiner 384-well black-walled, tissue culture (TC)-treated, clear-bottom plates (VWR). Cells were incubated overnight at 37° C. and 5% CO2. The next day, cells were washed using an ELX 405 (BioTek) with assay buffer; the final volume was then aspirated to 20 μL. Next, 20 μL of a 2.3 μM stock of Fluo-4/acetoxymethyl ester (Invitrogen, Carlsbad, CA), prepared as a 2.3 mM stock in DMSO and mixed in a 1:1 ratio with 10% (w/v) Pluronic F-127 and diluted in assay buffer, was added to the wells and the cell plates were incubated for 50 min at 37° C. and 5% CO2. Dye was removed by washing with the ELX 405 and the final volume was aspirated to 20 μL. Compound master plates were formatted in an 11 point concentration-response curve (CRC) format (1:3 dilutions) in 100% DMSO with a starting concentration of 10 mM using a BRAVO liquid handler (Agilent). Test compound CRCs were then transferred to daughter plates (240 nL) using the Echo acoustic plate reformatter (Labcyte, Sunnyvale, CA) and then diluted into assay buffer (40 μL) to a 2× stock using a Thermo Fisher Combi (Thermo Fisher Scientific, Waltham, MA).
Calcium flux was measured using the Functional Drug Screening System (FDSS) 6000 or 7000 (Hamamatsu Corporation, Tokyo, Japan) as an increase in the fluorescent static ratio. Compounds were applied to cells (20 μL, 2×) using the automated system of the FDSS at 2-4 seconds into the protocol and the data were collected at 1 Hz. At 144 seconds, 10 μL of an EC20 concentration of the muscarinic receptor agonist acetylcholine was added (5×), followed by the addition of 12 μL of an EC80 concentration of acetylcholine at the 230 second time point (5×). Agonist activity was analyzed as a concentration-dependent increase in calcium mobilization upon compound addition. Positive allosteric modulator activity was analyzed as a concentration-dependent increase in the EC20 acetylcholine response. Antagonist activity was analyzed as a concentration-dependent decrease in the EC80 acetylcholine response. Concentration-response curves were generated using a four-parameter logistical equation in XLFit curve fitting software (IDBS, Bridgewater, NJ) for Excel (Microsoft, Redmond, WA) or Prism (GraphPad Software, Inc., San Diego, CA).
Compounds were synthesized as described above. Activity (EC50 and Emax) was determined in the mAChR M4 cell-based functional assay as described above and the data are shown in Tables 2-4. The compound number corresponds to the compound numbers used in Table 1.

SMILES	Emax	EC50	Emax at 30 µM
Cc1c(N2CCc3ncccc3C2)nn2cnnc2c1C [Compound 1, 6-(7,8-dimethyl-[1,2,4]triazolo[4,3-b]pyridazin-6-yl)-7,8-dihydro-5H-1,6-naphthyridine]	97%	3970 nM	–
Cc1c(N2CCc3ncc(-c4ccn(C)n4)cc3C2)nn2cnnc2c1C [Compound 2, 6-(7,8-dimethyl-[1,2,4]triazolo[4,3-b]pyridazin-6-yl)-3-(1-methylpyrazol-3-yl)-7,8-dihydro-5H-1,6-naphthyridine]	–	628 nM	102%
Cc1c(N2CCc3ncc(C#N)cc3C2)nn2cnnc2c1C [Compound 3, 6-(7,8-Dimethyl-[1,2,4]triazolo[4,3-b]pyridazin-6-yl)-7,8-dihydro-5H-1,6-naphthyridine-3-carbonitrile]	69%	4510 nM	–
Cc1cnc2c(c1)CN(c1nn3cnnc3c(C)c1C)CC2 [Compound 5, 6-(7,8-Dimethyl-[1,2,4]triazolo[4,3-b]pyridazin-6-yl)-3-methyl-7,8-dihydro-5H-1,6-naphthyridine]	95%	230 nM	–
COc1ccc(Oc2cnc3c(c2)CN(c2nn4cnnc4c(C)c2C)CC3)cc1Cl [Compound 11, 3-(3-chloro-4-methoxy-phenoxy)-6-(7,8-dimethyl-[1,2,4]triazolo[4,3-b]pyridazin-6-yl)-7,8-dihydro-5H-1,6-naphthyridine]	–	1040 nM	57%
Cc1c(N2CCc3ncc(-c4ccnn4C(C)C)cc3C2)nn2cnnc2c1C [Compound 13, 6-(7,8-Dimethyl-[1,2,4]triazolo[4,3-b]pyridazin-6-yl)-3-(2-isopropylpyrazol-3-yl)-7,8-dihydro-5H-1,6-naphthyridine]	62%	285 nM	–
Cc1c(N2CCc3ncc(NC(=O)C4CC4)cc3C2)nn2cnnc2c1C [Compound 14, N-[6-(7,8-dimethyl-[1,2,4]triazolo[4,3-b]pyridazin-6-yl)-7,8-dihydro-5H-1,6-naphthyridin-3-yl]cyclopropanecarboxamide]	–	1150 nM	76%
Cc1c(N2CCc3ncc(NC(=O)C4COC4)cc3C2)nn2cnnc2c1C [Compound 15, N-[6-(7,8-Dimethyl-[1,2,4]triazolo[4,3-b]pyridazin-6-yl)-7,8-dihydro-5H-1,6-naphthyridin-3-yl]oxetane-3-carboxamide]	68%	5870 nM	–
Cc1c(N2CCc3ncc(NCc4ccc(C(C)(C)O)cc4)cc3C2)nn2cnnc2c1C [Compound 17, 2-[4-[[[6-(7,8-dimethyl-[1,2,4]triazolo[4,3-b]pyridazin-6-yl)-7,8-dihydro-5H-1,6-naphthyridin-3-yl]amino]methyl]phenyl]propan-2-ol]	–	936 nM	66%
Cc1c(N2CCc3ncc(-c4cnn(C5CCCCC5)c4)cc3C2)nn2cnnc2c1C [Compound 20, 3-(1-cyclohexylpyrazol-4-yl)-6-(7,8-dimethyl-[1,2,4]triazolo[4,3-b]pyridazin-6-yl)-7,8-dihydro-5H-1,6-naphthyridine]	–	331 nM	71%
Cc1c(N2CCc3ncc(-c4cnn(CC5CC5)c4)cc3C2)nn2cnnc2c1C [Compound 21, 3-[1-(cyclopropylmethyl)pyrazol-4-yl]-6-(7,8-dimethyl-[1,2,4]triazolo[4,3-b]pyridazin-6-yl)-7,8-dihydro-5H-1,6-naphthyridine]	–	162 nM	82%
Cc1nn(C)c(C)c1-c1cnc2c(c1)CN(c1nn3cnnc3c(C)c1C)CC2 [Compound 23, 6-(7,8-dimethyl-[1,2,4]triazolo[4,3-b]pyridazin-6-yl)-3-(1,3,5-trimethylpyrazol-4-yl)-7,8-dihydro-5H-1,6-naphthyridine]	–	149 nM	94%

Further compounds by falling EC50, results first:

Emax	EC50	Emax at 30 µM	SMILES
–	3620 nM	33%	Cc1c(N2CCc3ncc(Oc4ccc(OC(F)(F)F)c(F)c4)cc3C2)nn2cnnc2c1C [Compound 6, 6-(7,8-dimethyl-[1,2,4]triazolo[4,3-b]pyridazin-6-yl)-3-[3-fluoro-4-(trifluoromethoxy)phenoxy]-7,8-dihydro-5H-1,6-naphthyridine]
–	798 nM	47%	Cc1c(N2CCc3ncc(NCc4cccc(F)c4)cc3C2)nn2cnnc2c1C [Compound 18, 6-(7,8-dimethyl-[1,2,4]triazolo[4,3-b]pyridazin-6-yl)-N-[(3-fluorophenyl)methyl]-7,8-dihydro-5H-1,6-naphthyridin-3-amine]
–	789 nM	89%	Cc1c(N2CCc3ncc(N4CCCCC4)cc3C2)nn2cnnc2c1C [Compound 16, 6-(7,8-dimethyl-[1,2,4]triazolo[4,3-b]pyridazin-6-yl)-3-(1-piperidyl)-7,8-dihydro-5H-1,6-naphthyridine]
–	322 nM	87%	Cc1c(N2CCc3ncc(Oc4ccc(F)cc4)cc3C2)nn2cnnc2c1C [Compound 4, 6-(7,8-dimethyl-[1,2,4]triazolo[4,3-b]pyridazin-6-yl)-3-(4-fluorophenoxy)-7,8-dihydro-5H-1,6-naphthyridine]
–	295 nM	63%	Cc1c(N2CCc3ncc(Oc4ccc5c(c4)OCCO5)cc3C2)nn2cnnc2c1C [Compound 7, 3-(2,3-dihydro-1,4-benzodioxin-6-yloxy)-6-(7,8-dimethyl-[1,2,4]triazolo[4,3-b]pyridazin-6-yl)-7,8-dihydro-5H-1,6-naphthyridine]
–	212 nM	78%	Cc1noc(C)c1-c1cnc2c(c1)CN(c1nn3cnnc3c(C)c1C)CC2 [Compound 10, 4-[6-(7,8-dimethyl-[1,2,4]triazolo[4,3-b]pyridazin-6-yl)-7,8-dihydro-5H-1,6-naphthyridin-3-yl]-3,5-dimethyl-isoxazole]
–	200 nM	68%	Cc1c(N2CCc3ncc(Oc4ccc5c(cnn5C)c4)cc3C2)nn2cnnc2c1C [Compound 8, 6-(7,8-dimethyl-[1,2,4]triazolo[4,3-b]pyridazin-6-yl)-3-(1-methylindazol-5-yl)oxy-7,8-dihydro-5H-1,6-naphthyridine]
–	191 nM	76%	COc1ccc(Oc2cnc3c(c2)CN(c2nn4cnnc4c(C)c2C)CC3)cc1 [Compound 12, 6-(7,8-Dimethyl-[1,2,4]triazolo[4,3-b]pyridazin-6-yl)-3-(4-methoxyphenoxy)-7,8-dihydro-5H-1,6-naphthyridine]
–	146 nM	93%	Cc1nn(C)cc1-c1cnc2c(c1)CN(c1nn3cnnc3c(C)c1C)CC2 [Compound 22, 3-(1,3-dimethylpyrazol-4-yl)-6-(7,8-dimethyl-[1,2,4]triazolo[4,3-b]pyridazin-6-yl)-7,8-dihydro-5H-1,6-naphthyridine]
–	94.3 nM	79%	Cc1c(N2CCc3ncc(-c4cncs4)cc3C2)nn2cnnc2c1C [Compound 9, 5-[6-(7,8-dimethyl-[1,2,4]triazolo[4,3-b]pyridazin-6-yl)-7,8-dihydro-5H-1,6-naphthyridin-3-yl]thiazole]
–	49.3 nM	106%	Cc1c(N2CCc3ncc(-c4ccns4)cc3C2)nn2cnnc2c1C [Compound 19, 5-[6-(7,8-dimethyl-[1,2,4]triazolo[4,3-b]pyridazin-6-yl)-7,8-dihydro-5H-1,6-naphthyridin-3-yl]isothiazole]
